Experimental data published in ChEMBL document CHEMBL4052645, “Discovery of potent and efficacious pyrrolopyridazines as dual JAK1/3 inhibitors” (Bioorg Med Chem Lett, 2017).
Values after ≈ are worked out from the molar mass of the structure shown. Active and inactive are the calls of the source. The rule behind the calls is not given here.

Legend:
[1] = molecular target: Serine/threonine-protein kinase 16 (Homo sapiens) (UniProt O75716); assay: Inhibition of wild-type human partial length STK16 (G11 to I305 residues) expressed in bacterial expression system assessed as residual activity at 50 nM by Kinomescan method relative to control
Oryctolagus cuniculus [2] = assay: Cardiotoxicity in rabbit assessed as increase in heart rate at >3 mg/kg; format: toxicity, organism-based; conditions: in vivo
[3] = Tmax in BALB/c mouse at 10 mg/kg, po; format: ADME, organism-based; conditions: in vivo
[4] = Clearance in Sprague-Dawley rat at 2 mg/kg, iv; format: ADME, organism-based; conditions: in vivo
[5] = molecular target: Tyrosine-protein kinase Lyn (Homo sapiens) (UniProt P07948); assay: Inhibition of wild-type human partial length LYN (C219 to Q511 residues) expressed in bacterial expression system assessed as residual activity at 50 nM by Kinomescan method relative to control
Rattus norvegicus [6] = assay: Cardiotoxicity in rat assessed as decrease in mean arterial blood pressure at 200 mg/kg; format: toxicity, organism-based; conditions: in vivo
[7] = AUC in Sprague-Dawley rat at 2 mg/kg, iv; format: ADME, organism-based; conditions: in vivo
[8] = molecular target: Ephrin type-B receptor 2 (Homo sapiens) (UniProt P29323); assay: Inhibition of wild-type human partial length EPHB2 (I597 to L902 residues) expressed in bacterial expression system assessed as residual activity at 50 nM by Kinomescan method relative to control
Oryctolagus cuniculus [9] = assay: Cardiotoxicity in rabbit assessed as decrease in mean arterial blood pressure at >3 mg/kg; format: toxicity, organism-based; conditions: in vivo
[10] = Volume of distribution at steady state in Sprague-Dawley rat at 2 mg/kg, iv; format: ADME, organism-based; conditions: in vivo, read-out: Vdss
[11] = test system: Ribosomal protein S6 kinase alpha-2; assay: Inhibition of wild-type human partial length C-terminal RSK3 kinase domain 2 (V403 to K700 residues) expressed in bacterial expression system assessed as residual activity at 50 nM by Kinomescan method relative to control
[12] = molecular target: Calcium/calmodulin-dependent protein kinase type 1 (Homo sapiens) (UniProt Q14012); assay: Inhibition of wild-type human full length CAMK1A (M1 to L370 residues) expressed in bacterial expression system assessed as residual activity at 50 nM by Kinomescan method relative to control
[13] = Cmax in mouse at 10 mg/kg, po after 24 hrs; format: ADME, organism-based; design: dose 10 mg/kg, route oral; conditions: in vivo
Homo sapiens [14] = organism: Homo sapiens; assay: Inhibition of sodium channel (unknown origin) at 10 uM by patch clamp assay
[15] = Half life in human liver microsomes; format: ADME, microsome
[16] = molecular target: Rho-associated protein kinase 1 (Homo sapiens, UniProt Q13464); assay: Inhibition of Rho-associated protein kinase 1 (unknown origin)
[17] = Aqueous solubility of compound at pH 6.5; format: physicochemical
[18] = AUC in BALB/c mouse at 10 mg/kg, po; format: ADME, organism-based; conditions: in vivo
[19] = molecular target: Nuclear receptor subfamily 1 group I member 2 (Homo sapiens, UniProt O75469); assay: Activation of PXR (unknown origin); format: ADME
[20] = molecular target: Tyrosine-protein kinase JAK1 (Homo sapiens, UniProt P23458); assay: Inhibition of wild-type human partial length JAK1 JH2 pseudokinase domain (R537 to D855 residues) expressed in mammalian expression system assessed as residual activity at 50 nM by Kinomescan method relative to control
[21] = Protein binding in human plasma; format: ADME, cell-free; conditions: read-out: PPB (converted)
[22] = test system: Casein kinase I isoform alpha-like; assay: Inhibition of CK1A2 (unknown origin) assessed as residual activity at 50 nM by Kinomescan method relative to control; conditions: Homo sapiens
[23] = Cmin in mouse at 10 mg/kg, po after 24 hrs; format: ADME, organism-based; conditions: in vivo, read-out: Cmin
[24] = Cmax in BALB/c mouse at 10 mg/kg, po; format: ADME, organism-based; design: dose 10 mg/kg, route oral; conditions: in vivo
[25] = Half life in Sprague-Dawley rat at 2 mg/kg, iv; format: ADME, organism-based; conditions: in vivo
Homo sapiens [26] = organism: Homo sapiens; assay: Inhibition of calcium channel (unknown origin) at 10 uM by patch clamp assay
[27] = molecular target: Mitogen-activated protein kinase 9 (Homo sapiens) (UniProt P45984); assay: Inhibition of wild-type human full length JNK2 (M1 to Q382 residues) expressed in mammalian expression system assessed as residual activity at 50 nM by Kinomescan method relative to control
Rattus norvegicus [28] = assay: Toxicity in rat assessed as mortality at 200 mg/kg; format: organism-based; conditions: in vivo
[29] = AUC in BALB/c mouse at 2 mg/kg, iv; format: ADME, organism-based; conditions: in vivo
[30] = Selectivity ratio of IC50 for JAK2 dependent EPO-induced STAT5A phosphorylation in human TF1 cells to IC50 for JAK1/JAK3 dependent IL2-induced STAT3 phosphorylation in human PBMC derived T-cells
[31] = molecular target: Protein kinase C iota type (Homo sapiens) (UniProt P41743); assay: Inhibition of recombinant human PKCiota (H215 to V587 residues) expressed in mammalian expression system assessed as residual activity at 50 nM by Kinomescan method relative to control
Cytochrome P450 3A4 = Cytochrome P450 3A4 (Homo sapiens, UniProt P08684); assay: Inhibition of CYP3A4 (unknown origin); format: ADME
[32] = molecular target: Voltage-gated inwardly rectifying potassium channel KCNH2 (Homo sapiens, UniProt Q12809); assay: Inhibition of human ERG by flux-based assay
[33] = test system: Mitogen-activated protein kinase kinase kinase 12; assay: Inhibition of wild-type human full length DLK (M1 to P859 residues) expressed in mammalian expression system assessed as residual activity at 50 nM by Kinomescan method relative to control
[34] = test system: Phosphatidylinositol 4,5-bisphosphate 3-kinase catalytic subunit alpha isoform (Homo sapiens), P42336 [H1047L]; assay: Inhibition of human partial length PIK3CA H1047L mutant (R108 to N1068 residues) expressed in mammalian expression system assessed as residual activity at 50 nM by Kinomescan method relative to control
Mus musculus [35] = organism: Mus musculus; assay: Clearance of compound in mouse relative to hepatic blood flow; format: ADME; conditions: in vivo
[36] = Clearance of compound in mouse; format: ADME, organism-based; conditions: in vivo
[37] = Drug concentration in mouse after 24 hrs; format: ADME; conditions: in vivo, read-out: Drug uptake
Mus musculus [38] = assay: Antiarthritic activity in collagen-induced mouse model assessed as […] at 2 mg/kg, po qd up to 41 days; format: functional, organism-based
[39] = Drug concentration in mouse at 2 mg/kg, po qd after 24 hrs; format: ADME, organism-based; conditions: in vivo, read-out: Drug uptake
Mus musculus [40] = organism: Mus musculus; assay: animal or person; conditions: Balb/c, 24 h
[41] = Drug concentration in mouse at 10 mg/kg, po qd after 24 hrs; format: ADME, organism-based; conditions: in vivo, read-out: Drug uptake
Mus musculus [42] = assay: Antiarthritic activity in collagen-induced mouse model assessed as […] at 10 mg/kg, po qd up to 41 days; format: functional, organism-based
Mus musculus [43] = assay: Antiarthritic activity in collagen-induced arthritis mouse model assessed as reduction in inflammation at 10 mg/kg, po qd measured up to 41 days; format: functional, organism-based

Voltage-gated inwardly rectifying potassium channel KCNH2, sequence (Q12809 whole entry, the tested form may be a part): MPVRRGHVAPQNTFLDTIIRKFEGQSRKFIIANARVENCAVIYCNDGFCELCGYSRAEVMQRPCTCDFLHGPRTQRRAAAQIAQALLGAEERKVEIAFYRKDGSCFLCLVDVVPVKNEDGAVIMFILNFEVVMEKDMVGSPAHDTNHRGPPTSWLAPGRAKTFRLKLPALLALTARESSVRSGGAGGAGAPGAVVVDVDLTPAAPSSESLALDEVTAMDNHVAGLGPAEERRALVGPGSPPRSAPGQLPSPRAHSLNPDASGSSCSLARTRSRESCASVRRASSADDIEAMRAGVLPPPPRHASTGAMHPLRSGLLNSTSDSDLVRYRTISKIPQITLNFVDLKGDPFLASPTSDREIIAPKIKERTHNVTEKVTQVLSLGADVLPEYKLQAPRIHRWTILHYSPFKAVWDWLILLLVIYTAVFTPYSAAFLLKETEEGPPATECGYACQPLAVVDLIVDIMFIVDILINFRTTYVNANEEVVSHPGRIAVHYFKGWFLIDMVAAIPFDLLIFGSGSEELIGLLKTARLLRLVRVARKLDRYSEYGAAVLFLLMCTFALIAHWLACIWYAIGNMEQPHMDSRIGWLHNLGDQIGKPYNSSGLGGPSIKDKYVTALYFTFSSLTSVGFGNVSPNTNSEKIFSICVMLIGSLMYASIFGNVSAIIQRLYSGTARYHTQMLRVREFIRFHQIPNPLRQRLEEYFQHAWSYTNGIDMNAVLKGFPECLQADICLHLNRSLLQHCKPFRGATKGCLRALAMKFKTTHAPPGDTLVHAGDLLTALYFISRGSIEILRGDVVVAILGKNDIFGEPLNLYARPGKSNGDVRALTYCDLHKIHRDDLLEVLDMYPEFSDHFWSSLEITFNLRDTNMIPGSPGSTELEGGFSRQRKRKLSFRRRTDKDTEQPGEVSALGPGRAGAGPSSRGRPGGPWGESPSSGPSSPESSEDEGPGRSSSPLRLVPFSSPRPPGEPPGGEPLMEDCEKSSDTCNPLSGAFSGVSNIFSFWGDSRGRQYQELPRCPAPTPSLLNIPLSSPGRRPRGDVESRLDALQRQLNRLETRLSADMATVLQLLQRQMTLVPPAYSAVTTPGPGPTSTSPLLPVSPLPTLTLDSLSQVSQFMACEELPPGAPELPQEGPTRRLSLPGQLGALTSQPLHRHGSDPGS
Tyrosine-protein kinase Lyn (Homo sapiens), sequence (P07948 2-512 limits assumed): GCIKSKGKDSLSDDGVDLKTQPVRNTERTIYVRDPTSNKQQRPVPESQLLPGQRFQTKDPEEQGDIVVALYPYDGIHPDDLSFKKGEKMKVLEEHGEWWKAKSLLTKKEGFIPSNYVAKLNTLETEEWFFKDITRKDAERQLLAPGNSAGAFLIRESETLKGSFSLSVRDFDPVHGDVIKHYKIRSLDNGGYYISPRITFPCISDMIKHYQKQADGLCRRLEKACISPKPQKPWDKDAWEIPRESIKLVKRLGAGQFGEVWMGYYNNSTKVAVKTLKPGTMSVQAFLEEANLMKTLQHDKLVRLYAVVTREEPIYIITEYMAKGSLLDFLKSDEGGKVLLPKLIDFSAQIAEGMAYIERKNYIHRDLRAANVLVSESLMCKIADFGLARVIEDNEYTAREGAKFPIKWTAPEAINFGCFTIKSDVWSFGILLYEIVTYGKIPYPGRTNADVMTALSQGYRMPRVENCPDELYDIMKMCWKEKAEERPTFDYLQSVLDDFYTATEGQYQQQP
Phosphatidylinositol 4,5-bisphosphate 3-kinase catalytic subunit alpha isoform (Homo sapiens), P42336 [H1047L], sequence (P42336 whole entry H1047L, the tested form may be a part, canonical isoform): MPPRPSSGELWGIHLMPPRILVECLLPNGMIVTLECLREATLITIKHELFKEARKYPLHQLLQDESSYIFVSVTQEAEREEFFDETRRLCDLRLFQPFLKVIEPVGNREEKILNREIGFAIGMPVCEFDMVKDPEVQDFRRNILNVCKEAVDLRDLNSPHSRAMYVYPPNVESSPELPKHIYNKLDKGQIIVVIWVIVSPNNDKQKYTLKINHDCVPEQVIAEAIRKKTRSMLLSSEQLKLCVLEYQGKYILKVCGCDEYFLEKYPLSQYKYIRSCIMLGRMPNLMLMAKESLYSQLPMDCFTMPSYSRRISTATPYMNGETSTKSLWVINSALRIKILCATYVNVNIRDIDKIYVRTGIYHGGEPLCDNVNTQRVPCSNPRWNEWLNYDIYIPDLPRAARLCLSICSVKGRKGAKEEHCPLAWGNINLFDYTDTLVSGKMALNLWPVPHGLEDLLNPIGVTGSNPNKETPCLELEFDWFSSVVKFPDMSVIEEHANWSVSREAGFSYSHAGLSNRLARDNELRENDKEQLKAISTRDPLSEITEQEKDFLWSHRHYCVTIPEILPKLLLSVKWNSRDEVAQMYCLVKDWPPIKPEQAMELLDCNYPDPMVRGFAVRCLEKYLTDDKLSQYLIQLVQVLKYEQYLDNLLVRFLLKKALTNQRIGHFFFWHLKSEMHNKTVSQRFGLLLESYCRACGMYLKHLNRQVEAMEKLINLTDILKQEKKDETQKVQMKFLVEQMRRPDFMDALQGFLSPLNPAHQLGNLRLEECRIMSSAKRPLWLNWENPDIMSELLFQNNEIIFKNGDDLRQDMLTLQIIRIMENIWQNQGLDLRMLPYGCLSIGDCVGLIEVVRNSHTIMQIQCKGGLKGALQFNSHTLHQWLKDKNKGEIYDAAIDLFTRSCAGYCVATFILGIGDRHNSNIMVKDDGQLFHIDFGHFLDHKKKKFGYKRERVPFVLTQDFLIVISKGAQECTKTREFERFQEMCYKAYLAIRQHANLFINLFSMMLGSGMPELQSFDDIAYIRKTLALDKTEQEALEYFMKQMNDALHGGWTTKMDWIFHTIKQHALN
Rho-associated protein kinase 1, sequence (Q13464 whole entry): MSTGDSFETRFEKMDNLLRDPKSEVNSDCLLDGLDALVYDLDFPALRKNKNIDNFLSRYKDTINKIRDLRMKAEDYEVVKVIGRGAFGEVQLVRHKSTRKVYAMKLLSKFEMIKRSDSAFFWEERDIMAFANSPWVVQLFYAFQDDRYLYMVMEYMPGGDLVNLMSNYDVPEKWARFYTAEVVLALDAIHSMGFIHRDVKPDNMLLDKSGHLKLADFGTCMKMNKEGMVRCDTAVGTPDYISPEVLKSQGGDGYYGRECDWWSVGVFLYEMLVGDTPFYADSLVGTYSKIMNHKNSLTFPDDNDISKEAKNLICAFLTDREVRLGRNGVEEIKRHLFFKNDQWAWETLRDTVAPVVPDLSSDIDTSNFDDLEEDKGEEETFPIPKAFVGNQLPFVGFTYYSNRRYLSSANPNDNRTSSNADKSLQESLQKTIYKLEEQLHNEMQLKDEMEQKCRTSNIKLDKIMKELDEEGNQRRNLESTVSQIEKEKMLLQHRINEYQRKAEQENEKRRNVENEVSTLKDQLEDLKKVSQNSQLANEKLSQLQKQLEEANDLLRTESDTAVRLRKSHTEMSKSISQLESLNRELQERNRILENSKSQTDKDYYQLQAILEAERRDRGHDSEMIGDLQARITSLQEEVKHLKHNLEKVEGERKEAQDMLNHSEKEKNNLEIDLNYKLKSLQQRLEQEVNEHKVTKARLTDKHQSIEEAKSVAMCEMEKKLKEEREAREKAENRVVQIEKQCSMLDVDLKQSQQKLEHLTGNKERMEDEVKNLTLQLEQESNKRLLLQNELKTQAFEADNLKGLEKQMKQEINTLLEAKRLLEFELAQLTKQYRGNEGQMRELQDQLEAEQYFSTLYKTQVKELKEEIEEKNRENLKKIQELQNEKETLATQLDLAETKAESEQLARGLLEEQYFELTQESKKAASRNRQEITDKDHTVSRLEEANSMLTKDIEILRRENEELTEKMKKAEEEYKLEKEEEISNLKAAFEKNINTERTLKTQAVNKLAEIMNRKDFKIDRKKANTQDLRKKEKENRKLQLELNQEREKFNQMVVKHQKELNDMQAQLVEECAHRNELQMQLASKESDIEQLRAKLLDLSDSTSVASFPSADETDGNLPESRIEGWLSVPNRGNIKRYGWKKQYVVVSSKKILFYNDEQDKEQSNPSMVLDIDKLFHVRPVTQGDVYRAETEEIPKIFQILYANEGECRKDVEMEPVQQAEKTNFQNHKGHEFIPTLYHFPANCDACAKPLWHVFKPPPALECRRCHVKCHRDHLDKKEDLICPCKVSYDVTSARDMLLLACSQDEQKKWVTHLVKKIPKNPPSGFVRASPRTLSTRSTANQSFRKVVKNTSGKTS
Serine/threonine-protein kinase 16 (Homo sapiens), sequence (O75716 whole entry, the tested form may be a part): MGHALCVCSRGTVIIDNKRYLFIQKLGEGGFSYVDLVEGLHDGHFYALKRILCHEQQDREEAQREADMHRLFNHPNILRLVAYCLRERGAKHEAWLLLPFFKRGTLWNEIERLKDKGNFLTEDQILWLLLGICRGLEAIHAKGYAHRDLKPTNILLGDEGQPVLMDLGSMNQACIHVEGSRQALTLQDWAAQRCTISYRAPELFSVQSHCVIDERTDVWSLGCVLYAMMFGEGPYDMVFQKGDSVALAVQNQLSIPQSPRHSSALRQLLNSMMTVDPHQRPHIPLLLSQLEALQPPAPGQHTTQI
Calcium/calmodulin-dependent protein kinase type 1 (Homo sapiens), sequence (Q14012 whole entry, looked up, the tested form may be a part): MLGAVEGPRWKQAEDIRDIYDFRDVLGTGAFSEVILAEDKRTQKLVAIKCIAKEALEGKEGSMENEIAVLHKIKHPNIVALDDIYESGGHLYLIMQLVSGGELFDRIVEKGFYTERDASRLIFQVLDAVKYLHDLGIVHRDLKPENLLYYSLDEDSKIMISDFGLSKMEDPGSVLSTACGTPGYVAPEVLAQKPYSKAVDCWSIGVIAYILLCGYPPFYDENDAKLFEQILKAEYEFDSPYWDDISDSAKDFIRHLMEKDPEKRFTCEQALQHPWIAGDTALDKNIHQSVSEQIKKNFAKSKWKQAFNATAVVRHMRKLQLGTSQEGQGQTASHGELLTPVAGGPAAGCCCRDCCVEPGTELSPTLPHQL

Q: Which results are given for COc1ccc(-c2cc3c(N[C@@H]4CC[C@](C)(N)C4(C)C)c(C(N)=O)cnn3c2)cn1?
A: Activity [1]: 87%; Activity (Oryctolagus cuniculus [2]): Toxic; Tmax [3]: 4 h; clearance [4]: 14.1 mL/min/kg; Activity [5]: 100%; Activity (Rattus norvegicus [6]): Toxic; AUC [7]: 5.8 µM·h; Activity [8]: 100%; Activity (Oryctolagus cuniculus [9]): Toxic; Vd [10]: 11.5 L/kg; Activity [11]: 93%; Activity [12]: 100%; Cmax [13]: 1100 nM; inhibition (Homo sapiens [14]): 71%; half-life [15]: > 1.5 h; IC50 [16]: 0.095 µM; solubility [17]: 79 µg/mL (≈ 193 µM); AUC [18]: 17.9 µM·h; EC50 [19]: > 17 µM; Activity [20]: 78%; fraction unbound [21]: 0.1; Activity [22]: 97%; concentration at 24 h [23]: 300 nM; Cmax [24]: 1100 nM; half-life [25]: 9.8 h; inhibition (Homo sapiens [26]): 16%; Activity [27]: 88%; Activity (Rattus norvegicus [28]): Toxic; AUC [29]: 4.9 µM·h; Ratio IC50 [30]: 130; Activity [31]: 100%; IC50 (Cytochrome P450 3A4): 11 µM; IC50 [32]: > 80 µM; Activity [33]: 81%

Q: With CC1(C)[C@H](Nc2c(C(N)=O)cnn3cc(-c4ccccc4)cc23)CC[C@]1(C)N as the compound, how does the Activity [34] read?
A: 95%

Q: And the CL (Mus musculus [35])?
A: 32%

Q: And the clearance [36]?
A: 29 mL/min/kg

Q: What about the concentration at 24 h [37] of the same compound?
A: 230 nM

Q: What about the Activity (Mus musculus [38]) of the same compound?
A: inactive

Q: And the concentration at 24 h [39]?
A: 60 nM

Q: And the IC50 (Mus musculus [40])?
A: 0.27 µM

Q: And the concentration at 24 h [41]?
A: 390 nM

Q: And the Activity (Mus musculus [42])?
A: Active

Q: What about the Activity (Mus musculus [43]) of the same compound?
A: Active
